Assay results reported in patent publication US20230149483A1, “SHORT-CHAIN FATTY ACID USE TO MITIGATE ANT[…] VIRULENCE GENE TRANSFER IN THE GUT” (Iowa State University Research Foundation, Inc., priority 2021, published 2023).
Read-outs that look alike come from different tables or passages of the source.

What was measured:
[1] = test system: conjugation pair E. coli APEC-02 to E. coli HS-4 (plasmid pAPEC-02-211A-ColV, IncF); type: cell-based
[2] = test system: conjugation pair E. coli APEC-02 to E. coli HS-4 in chicken ceca explants; type: cell-based
Procedure: Ex vivo ceca explants serve as models for bacterial host interactions. Plasmid transfer and its inhibition by SCFAs were tested using chicken ceca explants to mimic in vivo conditions. Chicken ceca explants were harvested from 2 week-old chickens, cultured in vitro, and used in co-culture with donors/recipients in the presence or absence of SCFAs.

[3] = test system: conjugation pairs S. Kentucky CVM29188 to E. coli HS-4 and E. coli APEC-02 to E. coli HS-4; conditions: for reduction of donor and recipient strains / transconjugant populations: physiological concentrations of SCFAs in the chicken gut, both conjugation pairs
Procedure: Physiological concentrations of SCFAs in the chicken gut were added to broth conjugations with the conjugation pairs 1) S. Kentucky CVM29188 to E. coli HS-4, and 2) E. coli APEC-02 to E. coli HS-4 (FIG. 3).

[4] = test system: transfer of conjugative plasmid pCVM29188_146 (IncF) between E. coli MG1655 (pCVM29188_146) and E. coli HS-4; assay: In vitro broth conjugation with propionate at fly media concentrations; type: cell-based; conditions: as low as half the concentrations of standard Drosophila fly media
[5] = broth conjugation, varying molar concentrations between 0 and 1 molar (FIG. 4)
[6] = 25 mM, each SCFA used individually, ceca explants from 2 week-old chickens

Structure (SMILES) | transconjugant populations [1] | efficacy in inhibition of plasmid transfer [2] | reduction of donor and recipient strains [3] | transconjugant populations [3] | transconjugant populations [1, 5] | efficacy in inhibition of plasmid transfer [2, 6] | conjugation frequency (transconjugants divided by donors) [4] | conjugation ([3]; physiological concentrations of propionate in the chicken gut)
CC(=O)O [acetic acid] | significantly reduced | showed efficacy | not | significantly reduced | – | – | – | –
CCCC(=O)O [butyric acid, butyric (butanoic) acid] | – | – | not | significantly reduced | significantly reduced | showed efficacy | – | –
O=CO [formic acid] | significantly reduced | showed efficacy | – | – | – | – | – | –
CC(C)C(=O)O [isobutyric acid, isobutyric (2-methylbutanoic) acid] | – | – | – | – | significantly reduced | showed efficacy | – | –
CC(C)CC(=O)O [isovaleric acid, isovaleric (3-methylbutanoic)] | – | – | – | – | significantly reduced | showed efficacy | – | –
CCC(=O)O [propionic acid] | – | – | – | – | significantly reduced | showed efficacy | significant decreases | did not significantly reduce
CCCCC(=O)O [valeric acid, valeric (pentanoic) acid] | – | – | – | – | significantly reduced | showed efficacy | – | –
